Assay results taken from patent publication US11530181B2, “IL-6 inhibitors and methods of treatment” (University of Florida Research Foundation, Incorporated, priority 2018, dated 2022).

How the values were obtained:
gp130-D1-D3 = target: T1, gp130-D1-D3 (Homo sapiens, UniProt P40189); assay: SPR direct binding to immobilized gp130-D1-D3 (CM5 chip); details: for Kd: SPR, gp130-D1-D3, linear regression at low concentrations, 25% Rmax; for ΔGexp: experimental binding energy from SPR KD
T1 construct: residues 1-301, the numbering system is based on PDB 3L5H, which is the mature form of gp130; tandem TFH purification tag (includes FLAG, as purified on anti-FLAG M2 agarose) (C); made in house; host or cells: Hi5 insect cells (baculovirus; virus generated in sf9)
T1 sequence (P40189 23-323): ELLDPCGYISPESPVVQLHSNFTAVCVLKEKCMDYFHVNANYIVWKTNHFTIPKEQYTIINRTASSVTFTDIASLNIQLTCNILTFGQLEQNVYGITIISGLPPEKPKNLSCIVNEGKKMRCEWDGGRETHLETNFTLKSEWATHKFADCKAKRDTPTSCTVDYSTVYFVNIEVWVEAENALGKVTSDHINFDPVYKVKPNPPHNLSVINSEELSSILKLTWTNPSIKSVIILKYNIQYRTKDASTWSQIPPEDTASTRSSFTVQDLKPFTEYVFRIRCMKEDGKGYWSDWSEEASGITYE

[1] = tested on: STAT3 phosphorylation in SUM159 cells; assay: Western blot, STAT3 phosphorylation in SUM159 (IL-6 autocrine); type: cell-based, human; details: SUM159, 1-4 μM, 16 h
Procedure: (§1) Cells were harvested and lysed in cold radioimmunoprecipitation assay (RIPA) lysis buffer containing proteasome inhibitor cocktail and phosphatase inhibitor cocktail. The protein concentrations were determined using the BCA Protein Assay kit. After adding the loading buffer and boiling at 95° C. for 10 minutes, equivalent amounts of proteins were loaded on and separated by SDS-PAGE, and then were transferred to PVDF membranes. Membranes were probed with primary antibodies (1:1000) against phospho-STAT3 (Tyr705), STAT3, phospho-STAT1 (Tyr701), STAT1, phospho-STAT6 (Tyr 641), STAT6, and GAPDH, respectively, and horseradish peroxidase (HRP)-conjugated secondary antibody (1:10000) (Cell Signaling Technology, Beverly, Mass.). Membranes were analyzed using Enhanced Chemiluminescence Plus reagents and either scanned with the Storm Scanner (Amersham Pharmacia Biotech, Inc., Piscataway, N.J.) or imaged with ChemiDoc MP imaging system (Bio-Rad, Hercules, Calif.). […] The cells were harvested after 30 minutes and analyzed by Western blot.
BxPC-3 and SUM159 cells were seeded in 10 cm plates (1 million cells per plate) and allowed to adhere overnight. […] Then cells were harvested and analyzed by western blotting.
SUM159 cells were seeded in 10 cm plates (1 million cells per plate) and allowed to adhere overnight. […] Then cells were harvested and analyzed by western blotting.

[2] = tested on: tert-immortalized human mammaryepithelial cells (HMEC-tert); assay: Cell viability of normal cells HMEC-tert vs SUM159; type: cell-based; details: 0.25-10 μM, 48 hours
Procedure: Cell viability was evaluated by using the MTT assay in triple replicates in one experiment and repeated for three times. Cancer cells were seeded in 96-well plates at a density of 3,000 cells per well. The cells were incubated at 37° C. for a period of 24 hours. Escalating concentrations of IL-6/gp130 inhibitors were added in triplicate to the plates in the presence of 10% FBS. After incubation for 48 or 72 hours, a stock solution of MTT (0.5 mg/ml) was then added to each well containing the treated cells, followed by incubation at 37° C. for 3 h. After removal of medium, the MTT dye was dissolved with spectrophotometric grade DMSO and the absorbance was read at 570 nm. The IC50 value is determined by interpolation based on the absorbance value halfway between positive and negative controls. In the experiment of LLM4 showing higher efficacy in cancer cells with higher levels of IL-6, instead of using medium with 10% FBS, DMEM with 0% FBS was used in order to eliminate the influence of trace amounts of growth factors and cytokines in FBS.
To examine whether the novel compounds show cytotoxicity to normal cells, cell viability was also measured when the normal cell line tert-immortalized human mammaryepithelial cells (HMEC-tert) [Yang H, Pinello C E, Luo J, et al. Small-molecule inhibitors of acetyltransferase p300 identified by high-throughput screening are potent anticancer agents. […]

[3] = tested on: OSM induced STAT3 phosphorylation; assay: Western blot, OSM induced STAT3 phosphorylation in MCF7; type: cell-based, human
Procedure: as §1
(§2) MCF7 breast cancer cells were seeded in 10 cm plates (1 million cells per plate) and allowed to adhere overnight. […] The cells were harvested after 30 minutes and analyzed by western blotting.

[4] = tested on: LIF induced STAT3 phosphorylation; assay: Western blot, LIF induced STAT3 phosphorylation in MCF7; type: cell-based, human
Procedure: as §1, §2

Row | Kd (gp130-D1-D3) [µM] | ΔGexp (gp130-D1-D3) [kcal/mol] | SMILES | inhibition of STAT3 phosphorylation [1] | differential cytotoxic effects to HMEC-tert and SUM159 cells [2] | OSM induced STAT3 phosphorylation ([3]; MCF7, 15 μM, 2, 3 and 4 hours) | LIF induced STAT3 phosphorylation ([4]; MCF7, 15 μM, 2, 3 and 4 hours) | inhibition of OSM induced STAT3 phosphorylation ([3]; MCF7, 4 μM) | inhibition of LIF induced STAT3 phosphorylation ([4]; MCF7, 4 μM)
1 | 15.6 | -6.55 | O=C(Nc1cccc(OCCN2CCCCC2)c1)Nc1cccc(-c2ccn[nH]2)c1 [LLM414, 1-(3-(1H-pyrazol-5-yl)phenyl)-3-(3-(2-(piperidin-1-yl)ethoxy)phenyl)urea] | inhibited STAT3 phosphorylation in SUM159 cells | selectively kill cancer cells | – | – | – | –
2 | – | – | O=C(Nc1cc(F)ccc1-n1cccc1)c1ccc(OCCCN2CCCCC2)cc1 [LLM4, N-(5-fluoro-2-(1H-pyrrol-1-yl)phenyl)-4-(3-(piperidin-1-yl)propoxy)benzamide] | – | – | remain intact | remain intact | – | –
3 | 20.5 | -6.39 | O=C(Nc1ccccc1-c1ccn[nH]1)c1ccc(OCCN2CCCCC2)cc1 [LLM418, N-(2-(1H-pyrazol-5-yl)phenyl)-4-(2-(piperidin-1-yl)ethoxy)benzamide] | stronger inhibition than LLM414 | selectively kill cancer cells | – | – | very little inhibitory effect | very little inhibitory effect
